Assay results as given in US10227324B2 (Shanghai Haiyan Pharmaceutical Technology Co., Ltd., priority 2014, dated 2019).
Like-named read-outs stand apart in the source and are kept apart here.

Experiments:
[1] = system: Akt phosphorylation (Ser473-p-Akt) in PC-3 cells; test: Inhibition of p-Akt phosphorylation level in PC-3 cells (cell level fluorescence imaging); type: cell-based; settings: Homo sapiens; Akt phosphorylation in PC-3 cells, 2 hours incubation; read-out: PC-3 cell (IC50/nM)
Procedure: This experiment was performed by cell level fluorescence image processing method.
Triton X-100: 10% aqueous Triton X-100 solution (Sigma T8787-100 mL) was prepared, stored at 4° C. and diluted by 1:100 to give 0.1% Triton X-100 aqueous solution for use in the experiment.
Prodium Iodide (PI): 1 mg/mL (1.5 mM) PI (Sigma P4170) storage solution was prepared with PBS and stored at −25° C. in the dark. For use, the PI storage solution was diluted with PBS by 1:1000 to give a 1.5 μM solution and used in dark.
PC-3 cells in logarithmic growth phase were digested with 0.25% EDTA trypsin. 3000 cells/90 μL were seeded in a 96-well plate (BD 356692) and cultured at 37° C. and 5% CO2. After the cells adhered, 10 μL of the compound to be tested which was gradiently diluted 3 times (0.0046 to 10 μM, 8 concentration points, in duplicate) was added and incubated for 2 hours, followed by addition of 100 μL of 4% paraformaldehyde (DINGGUO AR-0211) and incubated at room temperature for 45 minutes. Then 100 μL of 0.1% Triton X-100 solution was added and incubated for another 30 minutes.
Triton X-100 solution was removed and the cells were rinsed with 200 μl of PBS twice (300 rpm vibration for 1 minute). The blocking solution (1% BSA solution in PBS) (Genview FA016-100G) was added and incubated at room temperature for 2 hours. The plate was rinsed with PBS once (300 rpm, 1 min) and 30 μL of Ser473-p-Akt antibody (cell signaling 4060L) diluted with 0.1% BSA was added and incubated overnight at 4° C. Ser473-p-Akt antibody was removed and the plate was rinsed with PBS twice (300 rpm, 1 minute). 35 μL of Alexa Flour 488 donkey anti-rabbit IgG (Invitrogen A21206) was added and incubated at room temperature for 1.5 hours. The plate was rinsed with PBS twice (300 rpm, 1 minute) and 35 μL of 1.5 μM PI was added and incubated at room temperature for 0.5 h. The fluorescence intensity was measured with Acumen eX3 (TTP LabTech).
10 μM BEZ235 (Selleck S1009) treatment group was negative control and DMSO treatment group was positive control. Inhibition ratio %=[1−(the mean value of the fluorescence intensity of the compound to be tested−the mean value of the fluorescence intensity of the negative control group)/(the mean value of the fluorescence intensity of the positive control group−the mean value of the fluorescence intensity of the negative control group)]×100%

MCF-7 cells = test: Cell inhibitory activity detected by MTT assay, MCF-7; type: cell-based; settings: Homo sapiens, MCF7, 72 h, read-out: MCF-7 cell (IC50/nM), cell growth inhibition
Procedure: (§1) The MTT assay procedure and steps were carried out as well known to those skilled in the art, and all the reagents used in the methods were commercially available. The cells in logarithmic growth phase were digested with 0.25% EDTA trypsin (Gibco, 25200-056) and resuspended in fresh medium. 90 μL of the cell suspension was inoculated into a 96-well cell culture plate (BD Faclon 353072) with a suitable cell density and cultured at 37° C. under 5% CO2. After the cells adhered, 10 μL of the test compound at different concentrations (0.0046-10 μM, 8 concentration points) was added and incubated for another 72 h. 10 μL of MTT (5 mg/mL PBS solution) (Sigma, M5655) was added to react for 4 h. The absorbance at 492 nm was measured by using Thermo Scientific Multiskan MK3 microplate reader and IC50 was calculated using XLFIT 5.0 software (UK IDBS). MCF-7 cell culture medium: DMEM medium (Hyclone SH30243.01B+10% FBS (Gibco 10099-141)

[2] = molecular target: T1, PI3K-α kinase (p110α/p85α) (Homo sapiens, UniProt P42336); test: Determination of PI3K kinase activity (ADP Transcreener, fluorescence polarization); type: biochemical; settings: ATP 10 μM
T1 construct: purchased Invitrogen PV4788
T1 sequence (P42336 whole entry): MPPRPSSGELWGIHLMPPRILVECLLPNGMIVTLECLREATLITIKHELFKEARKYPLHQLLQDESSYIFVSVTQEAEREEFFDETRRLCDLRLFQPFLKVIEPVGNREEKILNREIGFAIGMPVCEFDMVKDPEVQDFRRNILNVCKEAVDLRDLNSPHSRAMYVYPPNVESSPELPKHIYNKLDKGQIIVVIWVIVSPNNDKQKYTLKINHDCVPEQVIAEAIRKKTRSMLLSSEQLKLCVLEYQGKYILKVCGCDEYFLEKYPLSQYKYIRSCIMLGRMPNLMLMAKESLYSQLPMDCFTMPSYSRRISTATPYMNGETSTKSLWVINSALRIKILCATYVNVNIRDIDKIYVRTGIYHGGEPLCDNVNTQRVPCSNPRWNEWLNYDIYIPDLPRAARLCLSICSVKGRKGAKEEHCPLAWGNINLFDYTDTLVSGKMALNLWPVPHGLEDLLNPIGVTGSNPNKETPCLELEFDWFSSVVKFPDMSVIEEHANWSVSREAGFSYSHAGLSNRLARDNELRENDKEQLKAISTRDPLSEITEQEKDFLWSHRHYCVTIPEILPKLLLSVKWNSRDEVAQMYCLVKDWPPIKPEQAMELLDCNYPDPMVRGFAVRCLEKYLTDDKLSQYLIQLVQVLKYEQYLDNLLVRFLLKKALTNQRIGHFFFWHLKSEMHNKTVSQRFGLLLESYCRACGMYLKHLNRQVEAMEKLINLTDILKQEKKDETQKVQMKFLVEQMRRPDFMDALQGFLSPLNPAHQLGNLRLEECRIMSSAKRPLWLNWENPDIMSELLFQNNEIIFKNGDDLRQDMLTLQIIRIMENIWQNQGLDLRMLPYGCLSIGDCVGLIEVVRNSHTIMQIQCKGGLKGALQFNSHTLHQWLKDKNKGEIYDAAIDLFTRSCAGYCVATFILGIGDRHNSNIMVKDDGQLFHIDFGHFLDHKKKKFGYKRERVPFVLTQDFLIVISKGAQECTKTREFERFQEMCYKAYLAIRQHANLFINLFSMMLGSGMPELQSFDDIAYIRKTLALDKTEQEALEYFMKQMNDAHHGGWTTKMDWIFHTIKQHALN
T1 sequence (P27986 whole entry partner): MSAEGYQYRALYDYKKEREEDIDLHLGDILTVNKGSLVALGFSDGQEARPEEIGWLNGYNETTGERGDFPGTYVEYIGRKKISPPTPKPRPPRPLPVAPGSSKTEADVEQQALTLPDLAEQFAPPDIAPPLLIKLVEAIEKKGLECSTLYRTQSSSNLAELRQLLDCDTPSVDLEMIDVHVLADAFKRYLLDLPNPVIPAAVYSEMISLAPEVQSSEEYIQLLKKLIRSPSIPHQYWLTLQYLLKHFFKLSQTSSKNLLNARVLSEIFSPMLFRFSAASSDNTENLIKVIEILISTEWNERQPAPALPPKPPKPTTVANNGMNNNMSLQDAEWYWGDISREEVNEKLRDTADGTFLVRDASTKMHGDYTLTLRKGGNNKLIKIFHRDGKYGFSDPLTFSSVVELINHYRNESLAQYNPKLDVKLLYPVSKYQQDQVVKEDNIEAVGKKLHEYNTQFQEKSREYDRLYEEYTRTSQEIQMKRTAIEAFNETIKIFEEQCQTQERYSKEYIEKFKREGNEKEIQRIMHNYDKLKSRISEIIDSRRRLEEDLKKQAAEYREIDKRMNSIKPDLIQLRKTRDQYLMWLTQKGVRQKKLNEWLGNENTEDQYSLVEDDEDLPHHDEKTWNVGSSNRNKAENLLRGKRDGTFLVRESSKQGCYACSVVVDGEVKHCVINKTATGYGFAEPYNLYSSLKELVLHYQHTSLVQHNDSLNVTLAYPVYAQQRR
Procedure: (§2) The inhibition of PI3K kinase activity by the compound to be tested was determined by the following method. The working concentration of each component in the 25 μL enzyme reaction system was: p110α/p85α 3 ng (or p110β/p85α 60 ng, or p110δ/p85α 90 ng, or p110γ 100 ng), ATP 10 μM, PIP2: PS (Invitrogen PV5100) 30 μM and the DMSO concentration was 2% after addition of the compound to be tested.
(§3) At the time of the test, the compound to be tested was dissolved in dimethylsulfoxide (DMSO) according to the desired concentration of the experiment. The compound to be tested was gradiently diluted 3 times (0.00046-1 μM, 8 concentration points) with 10% DMSO. 5 μL of the compound to be tested was added to each well of a 96-well plate (Greiner 675076) in duplicate. […] 10 μL of ATP/PIP2: PS and 10 μL of the PI3K enzyme working solution were added to each well in a 96-well plate. The plate was shaken and mixed uniformly, and then incubated at 25° C. for 1 hour. At the same time, ADP and ATP (0.01 μM, 0.02 μM, 0.04 μM, 0.06 μM, 0.08 μM[…], 0.1 μM, 0.25 μM, 0.5 μM, 1 μM, 2 μM, 5 μM, 10 μM, 12 concentration points) were diluted with buffer to set the standard curve. After completion of the enzyme reaction, 25 μL of ADP assay solution (1% 100×ADP tracer, 0.79% ADP antibody and 10% 10× reaction stop solution) was added and incubated at 25° C. for 1 hour. Fluorescence polarization value [mP] of each well was measured with a Perkin Elmer Victor X5 Fluorescent Microplate. The ADP concentration [ADP] was calculated from the ADP/ATP standard curve and the IC50 values were calculated using the XLFit software.

NIH3T3 cells = test: Cytotoxicity by MTT assay, NIH3T3; type: cell-based; settings: Mus musculus, NIH3T3, 72 h, cytotoxicity class, read-out: NIH3T3 cell (IC50/nM)
Procedure: The MTT assay procedure and steps were carried out as well known to those skilled in the art, and all the reagents used in the methods were commercially available.
as §1, with “The” for “The MTT assay procedure and steps were carried out as well known to those skilled in the art, and all the reagents used in the methods were commercially available. The”, “IDBS).” for “IDBS). MCF-7 cell culture medium: DMEM medium (Hyclone SH30243.01B+10% FBS (Gibco 10099-141)”

T47D cells = test: Cell inhibitory activity detected by MTT assay, T47D; type: cell-based; settings: Homo sapiens, T47D, 72 h, read-out: T47D cell (IC50/nM), cell growth inhibition
Procedure: as §1, with “T47D” for “MCF-7”, “RPMI-1640” for “DMEM”, “SH30809.01B)+10%” for “SH30243.01B+10%”

PI3K-γ kinase (p110γ) = molecular target: T2, PI3K-γ kinase (p110γ) (Homo sapiens, UniProt P48736); test: Determination of PI3K kinase activity (ADP Transcreener, fluorescence polarization); type: biochemical; settings: Table 1; ATP 10 μM; read-out: PI3K-γ/nM (IC50 of inhibitory activity against PI3K kinase)
T2 construct: purchased Invitrogen PV4786
T2 sequence (P48736 whole entry): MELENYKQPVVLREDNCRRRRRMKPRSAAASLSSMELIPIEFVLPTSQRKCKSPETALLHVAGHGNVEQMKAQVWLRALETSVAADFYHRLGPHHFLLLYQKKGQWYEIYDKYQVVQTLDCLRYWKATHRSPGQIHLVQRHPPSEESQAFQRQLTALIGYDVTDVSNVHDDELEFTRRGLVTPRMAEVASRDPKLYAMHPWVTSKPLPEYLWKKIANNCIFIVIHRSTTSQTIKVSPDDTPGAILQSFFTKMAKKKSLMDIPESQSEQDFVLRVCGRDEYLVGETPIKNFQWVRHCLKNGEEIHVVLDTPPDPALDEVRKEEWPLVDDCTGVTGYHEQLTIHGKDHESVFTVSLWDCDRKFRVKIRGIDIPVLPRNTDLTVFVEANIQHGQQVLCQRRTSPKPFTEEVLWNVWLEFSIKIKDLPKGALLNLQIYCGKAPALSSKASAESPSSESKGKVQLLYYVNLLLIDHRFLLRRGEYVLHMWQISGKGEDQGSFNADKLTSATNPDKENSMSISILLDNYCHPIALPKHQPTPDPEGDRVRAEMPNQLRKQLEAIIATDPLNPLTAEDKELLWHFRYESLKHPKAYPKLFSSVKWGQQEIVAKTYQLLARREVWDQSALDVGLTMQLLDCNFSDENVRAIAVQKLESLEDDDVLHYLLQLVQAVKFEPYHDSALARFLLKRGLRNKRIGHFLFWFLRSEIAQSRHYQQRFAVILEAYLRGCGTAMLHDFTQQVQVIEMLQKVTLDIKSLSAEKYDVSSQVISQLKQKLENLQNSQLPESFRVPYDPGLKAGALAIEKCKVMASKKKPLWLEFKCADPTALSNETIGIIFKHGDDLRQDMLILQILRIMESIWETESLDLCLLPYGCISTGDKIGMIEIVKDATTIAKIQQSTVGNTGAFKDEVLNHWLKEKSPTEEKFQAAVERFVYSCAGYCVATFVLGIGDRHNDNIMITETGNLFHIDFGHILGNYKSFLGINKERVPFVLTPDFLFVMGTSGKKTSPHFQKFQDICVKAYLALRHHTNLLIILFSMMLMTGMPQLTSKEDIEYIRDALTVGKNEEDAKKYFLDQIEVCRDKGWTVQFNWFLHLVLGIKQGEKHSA
Procedure: The PI3K kinase used in the experiment: p110α/p85α (Invitrogen PV4788), p110β/p85α (Millipore 14-603), p110δ/p85α (Millipore 14-604M), and p110γ (Invitrogen PV4786).
as §2
as §3, with “duplicate. 2.5× buffer was prepared and 1 μL of DTT (Millipore 20-265) was added to each 800 μL of 2.5× buffer.” for “duplicate.”

[3] = molecular target: T3, PI3K-δ kinase (p110δ/p85α) (Homo sapiens, UniProt O00329); test: as above; type: biochemical; settings: Table 1; ATP 10 μM; read-out: PI3K-δ/nM (IC50 of inhibitory activity against PI3K kinase)
T3 construct: purchased Millipore 14-604M
T3 sequence (O00329 whole entry): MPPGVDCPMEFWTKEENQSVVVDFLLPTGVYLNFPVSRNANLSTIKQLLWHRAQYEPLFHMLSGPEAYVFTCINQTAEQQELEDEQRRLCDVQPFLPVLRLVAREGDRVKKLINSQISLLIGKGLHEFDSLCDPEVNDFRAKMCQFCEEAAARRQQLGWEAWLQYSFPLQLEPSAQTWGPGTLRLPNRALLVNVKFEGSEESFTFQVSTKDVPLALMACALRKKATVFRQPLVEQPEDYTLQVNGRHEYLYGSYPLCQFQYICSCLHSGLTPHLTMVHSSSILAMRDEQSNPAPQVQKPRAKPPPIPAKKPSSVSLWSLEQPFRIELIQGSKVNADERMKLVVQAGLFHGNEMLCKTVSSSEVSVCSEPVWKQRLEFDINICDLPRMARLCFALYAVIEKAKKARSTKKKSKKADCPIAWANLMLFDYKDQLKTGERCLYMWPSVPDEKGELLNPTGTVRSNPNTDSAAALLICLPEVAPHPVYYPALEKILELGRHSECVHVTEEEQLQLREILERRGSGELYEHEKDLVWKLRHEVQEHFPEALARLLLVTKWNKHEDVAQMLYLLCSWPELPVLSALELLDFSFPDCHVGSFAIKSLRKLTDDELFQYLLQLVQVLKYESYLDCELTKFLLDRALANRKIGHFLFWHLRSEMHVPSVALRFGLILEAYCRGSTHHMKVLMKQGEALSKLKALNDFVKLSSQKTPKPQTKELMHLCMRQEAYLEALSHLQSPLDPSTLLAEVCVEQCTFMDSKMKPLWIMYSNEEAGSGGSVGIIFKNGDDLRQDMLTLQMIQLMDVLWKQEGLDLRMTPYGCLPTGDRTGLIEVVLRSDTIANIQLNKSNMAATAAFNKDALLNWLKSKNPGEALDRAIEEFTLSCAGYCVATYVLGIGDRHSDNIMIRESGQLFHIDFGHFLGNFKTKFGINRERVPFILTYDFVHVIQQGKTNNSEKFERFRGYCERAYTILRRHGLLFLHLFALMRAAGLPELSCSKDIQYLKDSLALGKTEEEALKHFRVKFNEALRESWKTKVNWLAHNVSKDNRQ
T3 sequence (P27986 whole entry partner): as the sequence (P27986 whole entry partner) above
Procedure: as §2, §3

[4] = molecular target: T4, PI3K-β kinase (p110β/p85α) (Homo sapiens, UniProt P42338); test: as above; type: biochemical; settings: Table 1; ATP 10 μM; read-out: PI3K-β/nM (IC50 of inhibitory activity against PI3K kinase)
T4 construct: purchased Millipore 14-603
T4 sequence (P42338 whole entry): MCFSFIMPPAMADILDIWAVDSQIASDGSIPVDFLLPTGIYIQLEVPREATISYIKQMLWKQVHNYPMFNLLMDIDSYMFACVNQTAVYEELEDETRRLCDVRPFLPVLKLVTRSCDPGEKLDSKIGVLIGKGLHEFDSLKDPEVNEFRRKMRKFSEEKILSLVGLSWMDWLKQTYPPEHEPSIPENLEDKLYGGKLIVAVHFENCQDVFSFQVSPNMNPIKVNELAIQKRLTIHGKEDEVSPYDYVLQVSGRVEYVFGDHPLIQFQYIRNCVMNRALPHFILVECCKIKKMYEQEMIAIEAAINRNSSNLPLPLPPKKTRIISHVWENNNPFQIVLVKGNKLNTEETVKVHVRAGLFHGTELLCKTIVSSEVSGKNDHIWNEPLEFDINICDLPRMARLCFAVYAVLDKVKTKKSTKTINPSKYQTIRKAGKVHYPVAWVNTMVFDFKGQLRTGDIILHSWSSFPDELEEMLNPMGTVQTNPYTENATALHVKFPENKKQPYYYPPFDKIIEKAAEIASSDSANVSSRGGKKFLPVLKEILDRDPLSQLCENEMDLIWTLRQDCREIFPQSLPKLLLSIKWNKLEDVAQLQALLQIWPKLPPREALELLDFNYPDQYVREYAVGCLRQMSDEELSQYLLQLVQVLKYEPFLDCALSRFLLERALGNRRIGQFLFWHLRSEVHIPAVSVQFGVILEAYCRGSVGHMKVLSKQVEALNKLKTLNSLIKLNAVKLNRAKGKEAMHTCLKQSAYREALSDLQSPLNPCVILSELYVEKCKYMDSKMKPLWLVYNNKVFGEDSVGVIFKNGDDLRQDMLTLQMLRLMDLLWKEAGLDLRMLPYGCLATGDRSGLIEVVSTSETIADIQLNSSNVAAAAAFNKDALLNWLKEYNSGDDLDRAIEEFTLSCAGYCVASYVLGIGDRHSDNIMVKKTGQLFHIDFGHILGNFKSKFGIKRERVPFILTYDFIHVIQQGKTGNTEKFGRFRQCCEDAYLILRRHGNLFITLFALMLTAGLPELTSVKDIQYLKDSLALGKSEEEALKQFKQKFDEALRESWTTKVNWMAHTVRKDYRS
T4 sequence (P27986 whole entry partner): as the sequence (P27986 whole entry partner) above
Procedure: as §2, §3

[5] = Table 2, read-out: PI3K-α/nM (IC50 of inhibitory activity against PI3K-α kinase)
[6] = Table 1, read-out: PI3K-α/nM (IC50 of inhibitory activity against PI3K kinase)

Compound | IC50 [1] [nM] | IC50 (MCF-7 cells) [nM] | IC50 (NIH3T3 cells) [nM] | other results
CS(=O)(=O)C1(c2cc(-c3ccc(N)nc3)nc(N3CCOCC3)n2)CC1 [Compound S-40] | 465 | 355 |  | IC50 [2, 5]: 92 nM
C[C@@H]1COCCN1c1nc(-c2cnc(N)cc2C(F)(F)F)cc(C2(S(C)(=O)=O)CC2)n1 [Compound S-5] |  |  | 1000 to 3000 | 
CC(=O)NC1(c2cc(-c3cnc(N)cc3C(F)(F)F)nc(N3CCOCC3)n2)CC1 [Compound S-26, N-(1-(6-(6-amino-4-(trifluoromethyl)pyridin-3-yl)-2-morpholinopyrimidin-4-yl)cyclopropyl)acetamide] |  |  | > 10000 | IC50 [2, 5]: 390 nM
CC(C)(c1cc(-c2cnc(N)cc2C(F)(F)F)nc(N2CCOCC2)n1)n1ncc2ccccc21 [Compound S-56, 5-(6-(2-(1H-indazol-1-yl)propan-2-yl)-2-morpholinopyrimidin-4-yl)-4-(trifluoromethyl)pyridin-2-amine] |  |  | > 10000 | 
CNc1cc(C(F)(F)F)c(-c2cc(C3(S(C)(=O)=O)CC3)nc(N3CCOCC3)n2)cn1 [Compound S-36] |  |  | 3000 to 5000 | 
Nc1cc(C(F)(F)F)c(-c2cc(C3(C(=O)N4CCCCC4)CC3)nc(N3CCOCC3)n2)cn1 [Compound S-7] |  |  | > 10000 | 
CS(=O)(=O)C1(c2cc(-c3cnc(N)cc3C(F)(F)F)nc(N3CCOCC3)c2)CC1 [Comparative compound 1, 4-(1-(methylsulfonyl)cyclopropyl)-6-morpholino-4′-(trifluoromethyl)-2,3′bipyridyl-6′-amine, reference compound] | 2260 | 996 |  | IC50 (T47D cells): 1220 nM
CC(C)(O)c1cc(-c2cnc(N)nc2C(F)(F)F)nc(N2CCOCC2)n1 [Compound S-64] | 330 |  |  | IC50 (PI3K-γ kinase (p110γ)): 431 nM; IC50 [3]: 19 nM; IC50 [4]: 27 nM; IC50 [2, 6]: 13 nM
Nc1cc(C(F)(F)F)c(-c2cc(C3(CN4CCOCC4)CC3)nc(N3CCOCC3)n2)cn1 [Compound S-8, 5-(2-morpholino-6-(1-(morpholinomethyl)cyclopropyl)pyrimidin-4-yl)-4-(trifluoromethyl)pyridin-2-amine] |  |  | > 10000 | 
CC(C)(c1cc(-c2ccc(N)nc2)nc(N2CCOCC2)n1)S(C)(=O)=O [Compound S-39] | 513 | 441 |  | 
Nc1cc(C(F)(F)F)c(-c2cc(N3CCOCC3)nc(N3CCOCC3)n2)cn1 [BKM-120, reference compound] | 596 |  |  | 
CC(C)(O)c1cc(-c2cnc(N)cc2Cl)nc(N2CCOCC2)n1 [Compound S-63] | 577 | 240 |  | IC50 (PI3K-γ kinase (p110γ)): 428 nM; IC50 [3]: 158 nM; IC50 [4]: 228 nM; IC50 [2, 6]: 21 nM
C[C@H]1COCCN1c1nc(-c2cnc(N)cc2C(F)(F)F)cc(C2(S(=O)(=O)c3ccccc3)CCC2)n1 [Compound S-15] |  |  | 5000 to 10000 | 
